System: KS-483 cells
Experiment: qPCR gene expression in KS-483 cells after compound stimulation
Format: cell-based
Conditions: 3 days stimulation, Indo 5 uM; for BMP-4 gene expression (control = 1) / BMP-7 gene expression (control = 1) / CD36 gene expression (control = 1) / CEBP gene expression (control = 1) / CIDEA gene expression (control = 1) / DKK2 gene expression (control = 1) / FABP-4 gene expression (control = 1) / FGF21 gene expression (control = 1) / LPL gene expression (control = 1) / LRP5 gene expression (control = 1) / O3FAR1 gene expression (control = 1) / PLIN1 gene expression (control = 1) / PPAR-γ gene expression (control = 1) / PRDM16 gene expression (control = 1) / PpargC1α/PGC-1α gene expression (control = 1) / SCD1 gene expression (control = 1) / SLC2A4 gene expression (control = 1) / WNT5a gene expression (control = 1) / WNT6 gene expression (control = 1) / WNT10a gene expression (control = 1) / WNT11 gene expression (control = 1) / Adipoq gene expression (control = 1) / CFD gene expression (control = 1) / Noggin gene expression (control = 1) / UCP-1 gene expression (control = 1): Pentosan 5 ug/ml; for BMP-2 gene expression (control = 1): Pentosan 0.05 ug/ml
Procedure: The genes in KS-483 cells were assessed for up- or downregulation after stimulation with compound. Briefly, KS-483 cells were cultured under standard culturing conditions in α-MEM medium supplemented with glutamax, penicillin/streptomycin and 10% heat-inactivated Foetal Calf Serum (FCS).
For gene-expression analysis cells were seeded at 9210 cells/cm2 in 6-wells culture plates (Costar). At day 4, when cells were confluent, cells were stimulated with compounds in the presence of 5 μg/ml vitamin C. After 72 hours stimulation, cells were washed with PBS and subsequently RNA from the cells was isolated in 1 ml TRIzol (Invitrogen) following a standard TRIzol isolation protocol. RNA concentration and purity was assessed on a Nanodrop 1000 (Thermo Scientific). Single strand cDNA was synthesized from the isolated mRNA using reverse transcriptase (RT). Subsequently, SYBR green real-time PCR, also known as qPCR, was used to quantify differential gene expression of selected genes normalized to the expression of the housekeeping gene beta-2 microglobulin (b2m). […] The qPCR protocol applied was as follows:
15 minutes at 95° C. to activate Taq DNA polymerase, inactivate reverse transcriptase and denaturate the cDNA template.
40 cycles of 15 seconds denaturation at 95° C., 30 seconds annealing at 55° C. and 30 seconds of extension at 72° C.
At the melting point, the two strands of DNA will separate and the fluorescence rapidly decreases. Presence of multiple melting point, pointing at contaminated end-products was verified.
The threshold cycle or CT value (the cycle at which a statistically significant increase in normalized fluorescence intensity is first detected) were determined and relative fold change of genes of interest compared to b2m was determined.
The control has an expression of 1; values higher than 1 imply up-regulation of the gene; values lower than 1 imply down-regulation of genes.

| Compound | BMP-4 gene expression (control = 1) (1 ng c-DNA) | BMP-7 gene expression (control = 1) (1 ng c-DNA) | CD36 gene expression (control = 1) (1 ng c-DNA) | CEBP gene expression (control = 1) (1 ng c-DNA) | CIDEA gene expression (control = 1) (1 ng c-DNA) | DKK2 gene expression (control = 1) (1 ng c-DNA) | FABP-4 gene expression (control = 1) (1 ng c-DNA) | FGF21 gene expression (control = 1) (1 ng c-DNA) | LPL gene expression (control = 1) (1 ng c-DNA) | LRP5 gene expression (control = 1) (1 ng c-DNA) | O3FAR1 gene expression (control = 1) (1 ng c-DNA) | PLIN1 gene expression (control = 1) (1 ng c-DNA) | PPAR-γ gene expression (control = 1) (1 ng c-DNA) | PRDM16 gene expression (control = 1) (1 ng c-DNA) | PpargC1α/PGC-1α gene expression (control = 1) (1 ng c-DNA) | SCD1 gene expression (control = 1) (1 ng c-DNA) | SLC2A4 gene expression (control = 1) (1 ng c-DNA) | WNT5a gene expression (control = 1) (1 ng c-DNA) | WNT6 gene expression (control = 1) (1 ng c-DNA) | WNT10a gene expression (control = 1) (1 ng c-DNA) | other results |
| --- | --- | --- | --- | --- | --- | --- | --- | --- | --- | --- | --- | --- | --- | --- | --- | --- | --- | --- | --- | --- | --- |
| COc1ccc2c(c1)c(CC(=O)O)c(C)n2C(=O)c1ccc(Cl)cc1 [Indo, Indomethacin] | 0.81 | 1.62 | 181.5 | 1.19 | 0.95 | 1.06 | 162.94 | 2.33 | 4.43 | 1.58 | 2.26 | 354.02 | 0.91 | 1.58 | 1.15 | 1.32 | 2.09 | 0.73 | 0.83 | 0.92 | WNT11 gene expression (control = 1) (1 ng c-DNA): 1.01; BMP-2 gene expression (control = 1) (10 ng c-DNA): 1.96; Adipoq gene expression (control = 1) (10 ng c-DNA): 251.30; CFD gene expression (control = 1) (10 ng c-DNA): 413.23; CIDEA gene expression (control = 1) (10 ng c-DNA): 1.86; Noggin gene expression (control = 1) (10 ng c-DNA): 2.25; O3FAR1 gene expression (control = 1) (10 ng c-DNA): 5.68; UCP-1 gene expression (control = 1) (10 ng c-DNA): 2.18 |
| Pentosan polysulfate | 0.77 | 0.77 | 2.60 | 0.63 | 5.50 | 0.14 | 3.83 | 0.23 | 2.33 | 3.27 | 0.44 | 17.47 | 1.55 | 1.85 | 2.09 | 0.85 | 1.07 | 0.76 | 0.16 | 0.03 | WNT11 gene expression (control = 1) (1 ng c-DNA): 0.12; BMP-2 gene expression (control = 1) (10 ng c-DNA): 1.32; Adipoq gene expression (control = 1) (10 ng c-DNA): 32.00; CFD gene expression (control = 1) (10 ng c-DNA): 40.86; CIDEA gene expression (control = 1) (10 ng c-DNA): 9.19; Noggin gene expression (control = 1) (10 ng c-DNA): 3.56; O3FAR1 gene expression (control = 1) (10 ng c-DNA): 1.14; UCP-1 gene expression (control = 1) (10 ng c-DNA): 2.85 |
